The source of these data is PMC5040747, “Preparation and Evaluation of a Novel Class of Amphiphilic Amines as Antitumor Agents and Nanocarriers for Bioactive Molecules” (Pharmaceutical Research, 2016).

The subject of one data set is A673. As to the kind of experiment: MTT cell proliferation assay, A673. It is filed as cell-based. The conditions noted are these: Homo sapiens, A673, Ewing's Sarcoma, read-out: Cell killing activity IC50. Here is the method: (§1) Cells were plated in 96-well tissue culture plates at a density of 1 × 10^3 cells/well, allowed to attach 24 h, and then left untreated or treated with growth medium containing different concentrations of the tested RCn compounds previously dissolved in PBS. After different time periods the cell vitality was determined by MTT assay according to the manufacture’s instruction (Promega). Results are reported as the micromolar concentration of RCn reducing cell survival to 50% (IC50).

The next data set concerns SK-N-AS. As to the kind of experiment: MTT cell proliferation assay, SK-N-AS. In kind it is cell-based. To be noted: Homo sapiens, Neuroblastoma, read-out: Cell killing activity IC50. Here is the method: as §1
Background: Formazan colour is commonly taken as a measure of viable cells.

In a further data set the test system is Rh41. Kind of data set: MTT cell proliferation assay, Rh41. It is filed as cell-based. The conditions noted are these: Homo sapiens, Rh41, Rhabdomyosarcoma, read-out: Cell killing activity IC50. The method, then:
as §1

The next data set relates to 143.98.2. As to the kind of experiment: MTT cell proliferation assay, 143.98.2. In kind it is cell-based. The conditions noted are these: Homo sapiens, 143.98.2, Osteosarcoma, read-out: Cell killing activity IC50. The method, then: as §1
The test system of another data set is S462TY. As to the kind of experiment: MTT cell proliferation assay, S462TY. It is filed as cell-based. The conditions noted are these: Homo sapiens, Malignant Peripheral Nerve Sheath Tumor, read-out: Cell killing activity IC50. Here is the method: as §1
For a further data set, the system named is Ramos. As to the kind of experiment: MTT cell proliferation assay, Ramos. It is filed as cell-based. To be noted: Homo sapiens, Lymphoma, read-out: Cell killing activity IC50. The method, then:
as §1

In another data set the test system is CHLA-20 cells. As to the kind of experiment: Cell killing activity of drugs complexed with RC16 (MTT). In kind it is cell-based, human. The conditions noted are these: CHLA-20, free drug at concentration corresponding to that present in the complex, 48 h, percent of untreated cells. Here is the method:
(§2) Aqueous solutions of RC16 (10 mM, 1 mL) were mixed with ethanol solutions of Doxorubicin, Paclitaxel or Etoposide (1 mM, 1 mL). After stirring 12 h at 25 C the mixtures were dialyzed through 5000 Da MW cutoff dialysis membranes against 100 ml water by changing the external medium every 8 h for 3 days. The RC16-drug complex collected after dialysis was freeze-dried and the solid residue obtained was spectrophotometrically analysed to estimate the percentage of drug in the final product. The anticancer activity of each complexed drug was evaluated in CHLA-20 as the difference between the activity of the complex and the pure RC16 at the same concentration of the complex.

Data set [1] in a line: Encapsulation of drugs in RC16 micelles. The conditions noted are these: drug complexed in RC16 micelles, after dialysis and freeze-drying. It is filed as physicochemical. The method, then: as §2

Where two headings read alike, the source gives them in different places.

Turning to `CCCCCCCCCCC1CN2CCCN3CCCCCC132` (stereo not drawn) [RC12, 2-decyl-4,8-diazatricyclo[6.5.0.0^1,^4]tridecane], the IC50 in the data set with A673 (24 h) came to 1820 nM; in the data set on A673 (48 h), 1650 nM; with SK-N-AS (24 h) it was 1870 nM; with SK-N-AS (48 h), 710 nM; with Rh41 (24 h) it was 1750 nM; with Rh41 (48 h), 1160 nM. For the same compound, the IC50 was 1980 nM in the data set with 143.98.2 (24 h); 1240 nM in the data set with 143.98.2 (48 h); 2000 nM with S462TY (24 h); 1090 nM in the data set with S462TY (48 h); 1180 nM in the data set with Ramos (24 h); 740 nM with Ramos (48 h).

As to `CCCCCCCCCCCCCCCCC1CN2CCCN3CCCCCC132` (stereo not drawn) [RC18, 2-hexadecyl-4,8-diazatricyclo[6.5.0.0^1,^4]tridecane], the IC50 was found to be 1030 nM with A673 (24 h); 980 nM in the data set with A673 (48 h); 1230 nM with SK-N-AS (24 h); 750 nM in the data set with SK-N-AS (48 h); 1010 nM in the data set on Rh41 (24 h); 820 nM in the data set with Rh41 (48 h). Further, the IC50 with 143.98.2 (24 h) is 920 nM; in the data set on 143.98.2 (48 h), 650 nM; in the data set on S462TY (24 h), 1670 nM; in the data set with S462TY (48 h), 880 nM; in the data set on Ramos (24 h), 830 nM; with Ramos (48 h), 170 nM.

Take `CC(=O)O[C@H]1C(=O)[C@@]2(C)[C@H]([C@H](OC(=O)c3ccccc3)[C@]3(O)C[C@H](OC(=O)[C@H](O)[C@@H](NC(=O)c4ccccc4)c4ccccc4)C(C)=C1C3(C)C)[C@]1(OC(C)=O)CO[C@@H]1C[C@@H]2O` [PTX, Paclitaxel]: in the data set with CHLA-20 cells, the “Cell viability, % CTR (free drug)” value is 56.93 ± 4.61 % CTR. For the same compound, the “Encapsulation efficiency (weight percentage of drug in the final complex)” value in data set [1] amounted to 1.8 ± 0.73%.

`COc1cccc2c1C(=O)c1c(O)c3c(c(O)c1C2=O)C[C@@](O)(C(=O)CO)C[C@@H]3O[C@H]1C[C@H](N)[C@H](O)[C@H](C)O1` [DOXO, Doxorubicin]: the “Cell viability, % CTR (free drug)” value in the data set with CHLA-20 cells stood at 27.62 ± 0.55 % CTR. For the same compound, the “Encapsulation efficiency (weight percentage of drug in the final complex)” value in data set [1] was found to be 2.3 ± 0.78%.

In the case of `CCCCCC1CN2CCCN3CCCCCC132` (stereo not drawn) [RC7, 2-pentyl-4,8-diazatricyclo[6.5.0.0^1,^4]tridecane], the IC50 in the data set with A673 (24 h) came to 5730 nM; in the data set on A673 (48 h), 4110 nM; with SK-N-AS (24 h) it was 5210 nM; in the data set with SK-N-AS (48 h), 3430 nM; with Rh41 (24 h), 5780 nM; in the data set with Rh41 (48 h), 4010 nM. Also, the IC50 with 143.98.2 (24 h) is 4510 nM; in the data set on 143.98.2 (48 h), 3780 nM; in the data set on S462TY (24 h) it was 5620 nM; with S462TY (48 h) it was 3900 nM; in the data set on Ramos (24 h), 4550 nM; with Ramos (48 h), 3120 nM.

For `COc1cc([C@@H]2c3cc4c(cc3[C@@H](O[C@@H]3O[C@@H]5CO[C@@H](C)O[C@H]5[C@H](O)[C@H]3O)[C@H]3COC(=O)[C@H]23)OCO4)cc(OC)c1O` [ETO, Etoposide], the “Cell viability, % CTR (free drug)” value with CHLA-20 cells is listed as 65.80 ± 5.76 % CTR. In addition, the “Encapsulation efficiency (weight percentage of drug in the final complex)” value in data set [1] came out at 1.0 ± 0.59%.

`CCCCCCCCCCCCCCCCCCC1CN2CCCN3CCCCCC132` (stereo not drawn) [RC20, 2-octadecyl-4,8-diazatricyclo[6.5.0.0^1,^4]tridecane]: the IC50 with A673 (24 h) turned out to be 1220 nM; in the data set with A673 (48 h), 1350 nM; in the data set on SK-N-AS (24 h) it was 1600 nM; in the data set on SK-N-AS (48 h), 900 nM; in the data set with Rh41 (24 h), 1680 nM; with Rh41 (48 h), 1120 nM. Further, the IC50 with 143.98.2 (24 h) came to 1090 nM; in the data set with 143.98.2 (48 h) it was 830 nM; with S462TY (24 h), 1830 nM; with S462TY (48 h) it was 1160 nM; in the data set with Ramos (24 h), 970 nM; in the data set on Ramos (48 h) it was 200 nM.

Consider `CCCCCCCCC1CN2CCCN3CCCCCC132` (stereo not drawn) [RC10, 2-octyl-4,8-diazatricyclo[6.5.0.0^1,^4]tridecane], for which the IC50 is 2600 nM in the data set with A673 (24 h); 2020 nM in the data set with A673 (48 h); 2140 nM in the data set on SK-N-AS (24 h); 1560 nM with SK-N-AS (48 h); 2850 nM in the data set with Rh41 (24 h); 2030 nM in the data set on Rh41 (48 h). Besides, the IC50 with 143.98.2 (24 h) is 2550 nM; with 143.98.2 (48 h), 1680 nM; in the data set with S462TY (24 h) it was 2390 nM; in the data set on S462TY (48 h), 1780 nM; with Ramos (24 h), 2100 nM; in the data set with Ramos (48 h), 1030 nM.

Turning to `CCCCCCCCCCCCC1CN2CCCN3CCCCCC132` (stereo not drawn) [RC14, 2-dodecyl-4,8-diazatricyclo[6.5.0.0^1,^4]tridecane], the IC50 in the data set on A673 (24 h) was determined as 1270 nM; with A673 (48 h) it was 1130 nM; in the data set with SK-N-AS (24 h) it was 1200 nM; in the data set with SK-N-AS (48 h), 630 nM; in the data set with Rh41 (24 h) it was 1360 nM; in the data set on Rh41 (48 h) it was 970 nM. Besides, the IC50 with 143.98.2 (24 h) was determined as 1310 nM; with 143.98.2 (48 h) it was 780 nM; in the data set with S462TY (24 h) it was 1810 nM; with S462TY (48 h), 950 nM; in the data set on Ramos (24 h), 960 nM; in the data set with Ramos (48 h) it was 220 nM.

The IC50 is the concentration that inhibits the measured activity by half.
